From article PMC9460261, “Need for a Standardized Translational Drug Development Platform: Lessons Learned from the Repurposing of Drugs for COVID-19” (Microorganisms, 2022)
Where a name gives a salt, the structure may show the parent alone. Read-outs that look alike come from different tables or passages of the source.

Tests used:
[1] = test system: SARS-CoV-2 in human airway epithelial cells at air-liquid interface; format: cell-based, SARS-CoV-2_B.1.1.7
[2] = test system: SARS-CoV-2 in Mucilair human airway epithelia; format: cell-based, SARS-CoV-2 BavPat1/2020
[3] = test system: SARS-CoV-2 in human airway epithelial cells at air-liquid interface; set-up: method as in earlier work; details: 4 dpi, cited from earlier work

In the case of Nc1c(Br)cc(Br)cc1CN[C@H]1CC[C@H](O)CC1 [Ambroxol, ambroxol], the “Log Viral Load Reduction (Compared to Virus Control and Background), HAEC/ALI (alpha variant)” value [1] is reported as “–1.0 (+-0.71) log”.
For CCN(CC)Cc1cc(Nc2ccnc3cc(Cl)ccc23)ccc1O [Amodiaquine, amodiaquine], the “Log Viral titer Reduction (Compared to Virus Control), HAEC/ALI (BavPat variant)” value ([2]; 10 uM, […]) was -0.51 (+-1.60) log.
In the case of COC(=O)N[C@H](C(=O)N[C@@H](Cc1ccccc1)[C@@H](O)CN(Cc1ccc(-c2ccccn2)cc1)NC(=O)[C@@H](NC(=O)OC)C(C)(C)C)C(C)(C)C [Atazanavir, atazanavir], the “Log Viral titer Reduction (Compared to Virus Control), HAEC/ALI (BavPat variant)” value ([2]; 10 uM, […]) is reported as 0.09 (+-0.64) log.
In the case of CN(C)C(=O)COC(=O)Cc1ccc(OC(=O)c2ccc(NC(=N)N)cc2)cc1 [Camostat mesylate, camostat mesylate], the “Activity, HAEC/ALI (alpha variant)” value [1] is reported as “YES” and the “Log Viral Load Reduction (Compared to Virus Control and Background), HAEC/ALI (alpha variant)” value [1] is reported as > 1.7 log.
With COc1ccc2cc1Oc1ccc(cc1)C[C@H]1c3c(cc4c(c3Oc3cc5c(cc3OC)CCN(C)[C@@H]5C2)OCO4)CCN1C [Cepharanthine, cepharanthine] the “Log Viral Load Reduction (Compared to Virus Control and Background), HAEC/ALI (alpha variant)” value [1] was 0.92 (+-0.97) log.
In the case of COc1cc2c(c(OC)c1OC)-c1ccc(OC)c(=O)cc1[C@@H](NC(C)=O)CC2 [Colchicine, colchicine], the “Log Viral Load Reduction (Compared to Virus Control and Background), HAEC/ALI (alpha variant)” value [1] is reported as -0.2 (+-0.44) log.
With COC(=O)N[C@H](C(=O)N1CCC[C@H]1c1nc(-c2ccc(-c3ccc(-c4c[nH]c([C@@H]5CCCN5C(=O)[C@@H](NC(=O)OC)C(C)C)n4)cc3)cc2)c[nH]1)C(C)C [Daclatasvir, daclatasvir] the “Log Viral Load Reduction (Compared to Virus Control and Background), HAEC/ALI (alpha variant)” value ([1]; 10 uM, […]) was 0.17 (+-0.84) log.
In the case of O=c1nc(NO)ccn1[C@@H]1O[C@H](CO)[C@@H](O)[C@H]1O [EIDD-1931], the “Log Viral Load Reduction (Compared to Virus Control and Background), HAEC/ALI (alpha variant)” value [1] is reported as “+Inc” and the “Log Viral Load Reduction (Compared to Virus Control and Background), HAEC/ALI (alpha variant)” value ([1]; 10 uM, […]) is reported as “+Inc”.
For NC(=O)c1nc(F)c[nH]c1=O [Favipiravir, favipiravir], the “Log Viral Load Reduction (Compared to Virus Control and Background), HAEC/ALI (alpha variant)” value ([1]; 300 uM, […]) was -0.4 (+/-0.2) log.
For CNCCC(Oc1ccc(C(F)(F)F)cc1)c1ccccc1 (stereo not shown) [Fluoxetine, fluoxetine], the “Log Viral titer Reduction (Compared to Virus Control), HAEC/ALI (BavPat variant)” value [2] was 0.68 (+-0.11) and the “Log Viral Load Reduction (Compared to Virus Control and Background), HAEC/ALI (alpha variant)” value [1] was -0.12 (+-0.10).
For COCCCC/C(=N\OCCN)c1ccc(C(F)(F)F)cc1 [Fluvoxamine maleate, fluvoxamine maleate], the “Log Viral titer Reduction (Compared to Virus Control), HAEC/ALI (BavPat variant)” value ([2]; 10 uM, […]) was 0.2(+-0.1) log and the “Log Viral Load Reduction (Compared to Virus Control and Background), HAEC/ALI (alpha variant)” value ([1]; 10 uM, […]) was “+Inc”.
For OC(c1cc(C(F)(F)F)nc2c(C(F)(F)F)cccc12)C1CCCCN1 (stereo not shown) [Mefloquine, mefloquine], the “Log Viral Load Reduction (Compared to Virus Control and Background), HAEC/ALI (alpha variant)” value ([1]; 10 uM, […]) was 0.45 (+-2.02) log.
In the case of CC(C)C(=O)OC[C@H]1O[C@@H](n2ccc(NO)nc2=O)[C@H](O)[C@@H]1O [Molnupiravir, molnupiravir], the “Activity, HAEC/ALI (BavPat variant)” value [2] is reported as “YES”, the “Log Viral titer Reduction (Compared to Virus Control), HAEC/ALI (BavPat variant)” value ([2]; 0.3 uM, […]) is reported as -0.39 (+-0.48) log and the “Log Viral Load Reduction (Compared to Virus Control and Background), HAEC/ALI (alpha variant)” value [1] is reported as 1.9 (+-1.3) log. For the same molecule, the “Activity, HAEC/ALI (alpha variant)” value ([1]; 3 uM, […], § variability observed) was “YES”, the “Activity, HAEC/ALI (alpha variant)” value ([1]; 10 uM, […]) was “YES” and the “Log Viral Load Reduction (Compared to Virus Control and Background), HAEC/ALI (alpha variant)” value ([1]; 10 uM, […]) was 5.4 (+-1.5) log.
With Cc1c(O)cccc1C(=O)N[C@@H](CSc1ccccc1)[C@H](O)CN1C[C@H]2CCCC[C@H]2C[C@H]1C(=O)NC(C)(C)C [Nelfinavir, nelfinavir] the “Activity, HAEC/ALI (alpha variant)” value ([1]; 10 uM, […]) was “YES” and the “Log Viral Load Reduction (Compared to Virus Control and Background), HAEC/ALI (alpha variant)” value ([1]; 10 uM, […]) was 3.2 (+-1.4) log.
In the case of CC(C)(C)[C@H](NC(=O)C(F)(F)F)C(=O)N1C[C@H]2[C@@H]([C@H]1C(=O)N[C@H](C#N)C[C@@H]1CCNC1=O)C2(C)C [Nirmatrelvir, nirmatrelvir], the “Log Viral Load Reduction (Compared to Virus Control and Background), HAEC/ALI (alpha variant)” value ([3]; 0.03 uM) is listed as -0.30 (+-0.41) log, the “Log Viral Load Reduction (Compared to Virus Control and Background), HAEC/ALI (alpha variant)” value ([3]; 0.1 uM) is listed as 1.9 (+-1.6) log and the “Activity, HAEC/ALI (alpha variant)” value ([3]; 0.1 uM, § variability observed) is listed as “YES”. The “Activity, HAEC/ALI (alpha variant)” value ([3]; 1 uM) was “YES” and the “Log Viral Load Reduction (Compared to Virus Control and Background), HAEC/ALI (alpha variant)” value ([3]; 1 uM) was > 3.8 log.
For CC(=O)Oc1ccccc1C(=O)Nc1ncc([N+](=O)[O-])s1 [Nitazoxanide, nitazoxanide], the “Activity, HAEC/ALI (BavPat variant)” value [2] was “Yes” and the “Log Viral titer Reduction (Compared to Virus Control), HAEC/ALI (BavPat variant)” value [2] was -1.59 (+-0.72) log.
With CC(=O)CCCCn1c(=O)c2c(ncn2C)n(C)c1=O [Pentoxyfilline, pentoxyfilline] the “Log Viral titer Reduction (Compared to Virus Control), HAEC/ALI (BavPat variant)” value ([2]; 10 uM, […]) was 0.17(+-0.32) log.
In the case of CCCN(CCC)S(=O)(=O)c1ccc(C(=O)O)cc1 [Probenecid, probenecid], the “Log Viral Load Reduction (Compared to Virus Control and Background), HAEC/ALI (alpha variant)” value ([1]; 10 uM, […]) is reported as 0.34 (+-1.0) log.
In the case of CC1(C)C(=O)N(c2ccc(C#N)c(C(F)(F)F)c2F)C(=S)N1c1ccc(CCCc2ncco2)nc1 [Proxalutamide, proxalutamide], the “Log Viral titer Reduction (Compared to Virus Control), HAEC/ALI (BavPat variant)” value ([2]; 10 uM, […]) is reported as 0.11 (+-0.6) log.
In the case of CC(C)OC(=O)[C@H](C)N[P@](=O)(OC[C@H]1O[C@@H](n2ccc(=O)[nH]c2=O)[C@](C)(F)[C@@H]1O)Oc1ccccc1 [Sofosbuvir, sofosbuvir], the “Log Viral Load Reduction (Compared to Virus Control and Background), HAEC/ALI (alpha variant)” value ([1]; 10 uM, […]) is reported as -0.56 (+-0.10) log.
With bemnifosbuvir the “Log Viral titer Reduction (Compared to Virus Control), HAEC/ALI (BavPat variant)” value ([2]; 0.1 uM, […]) was -0.12 (+-0.4) log, the “Log Viral titer Reduction (Compared to Virus Control), HAEC/ALI (BavPat variant)” value ([2]; 0.3 uM, […]) was -0.38 (+-0.18) log and the “Log Viral Load Reduction (Compared to Virus Control and Background), HAEC/ALI (alpha variant)” value [1] was -0.35 (+-1.2) log.
With ivermectin the “Activity, HAEC/ALI (alpha variant)” value ([1]; 10 uM, […]) was “Toxic” and the “Log Viral Load Reduction (Compared to Virus Control and Background), HAEC/ALI (alpha variant)” value ([1]; 10 uM, […]) was > 4.09 log.
